Experimental data reported in the SangsterLogP compilation.

experiment: method code SF, from DOI: 10.1021/jm00063a015, PMID: 8388471

| logP | Structure (SMILES) |
| --- | --- |
| 3.47 | CN(Cc1ccccc1)C(=O)C(Cc1ccccc1)NC(=O)C(Cc1cn(C=O)c2ccccc12)NC(=O)CC1NC(=O)C2C3CCC(CC3)N2C1=O (stereo unspecified) |
| 5.66 | CN(Cc1ccccc1)C(=O)C(Cc1ccccc1)NC(=O)C(Cc1cn(C(=O)OCc2ccccc2)c2ccccc12)NC(=O)CC1NC(=O)C2C3CCC(CC3)N2C1=O (stereo unspecified) |

experiment: not given

| logP | Structure (SMILES) |
| --- | --- |
| 7.29 | CCCCCCCC(=O)n1cc(C[C@@H](NC(=O)CC2NC(=O)C3C4CCC(CC4)N3C2=O)C(=O)N[C@@H](Cc2ccccc2)C(=O)N(C)Cc2ccccc2)c2ccccc21 (stereo partly specified) |
| 4.05 | COC(=O)n1cc(CC(NC(=O)CC2NC(=O)C3C4CCC(CC4)N3C2=O)C(=O)NC(Cc2ccccc2)C(=O)N(C)Cc2ccccc2)c2ccccc21 (stereo unspecified) |
| 3.15 | CN(Cc1ccccc1)C(=O)C(Cc1ccccc1)NC(=O)C(Cc1cn(C(=O)CCC(=O)O)c2ccccc12)NC(=O)CC1NC(=O)C2C3CCC(CC3)N2C1=O (stereo unspecified) |
| 3.18 | CN(Cc1ccccc1)C(=O)C(Cc1ccccc1)NC(=O)C(Cc1c[nH]c2ccccc12)NC(=O)CC1NC(=O)C2C3CCC(CC3)N2C1=O (stereo unspecified) |
| 3.85 | CN(Cc1ccccc1)C(=O)C(Cc1ccccc1)NC(=O)C(Cc1cn(C)c2ccccc12)NC(=O)CC1NC(=O)C2C3CCC(CC3)N2C1=O (stereo unspecified) |
| 2.48 | CN(Cc1ccccc1)C(=O)C(Cc1ccccc1)NC(=O)C(Cc1cn(C(=O)CCCCCCN)c2ccccc12)NC(=O)CC1NC(=O)C2C3CCC(CC3)N2C1=O (stereo unspecified) |
| 5.33 | CN(Cc1ccccc1)C(=O)[C@H](Cc1ccccc1)NC(=O)[C@@H](Cc1cn(C(=O)OC(C)(C)C)c2ccccc12)NC(=O)CC1NC(=O)C2C3CCC(CC3)N2C1=O (stereo partly specified) |
| 3.69 | CC(=O)n1cc(CC(NC(=O)CC2NC(=O)C3C4CCC(CC4)N3C2=O)C(=O)NC(Cc2ccccc2)C(=O)N(C)Cc2ccccc2)c2ccccc21 (stereo unspecified) |
| 2.95 | CN(Cc1ccccc1)C(=O)C(Cc1ccccc1)NC(=O)C(Cc1cn(C(=O)OCCCCCCN)c2ccccc12)NC(=O)CC1NC(=O)C2C3CCC(CC3)N2C1=O (stereo unspecified) |
